Laboratory results reported in PMC8286840, “Identifying SARS-CoV-2 antiviral compounds by screening for small molecule inhibitors of Nsp3 papain-like protease” (Biochemical Journal, 2021).
Structures can show the parent of a compound that is named as a salt. Where two headings read alike, the source gives them in different places.

Legend:
[1] = molecular target: T1, SARS-CoV-2 PLpro (nsp3 1564–1878) (Severe acute respiratory syndrome coronavirus 2, UniProt P0DTD1); assay: biochemical; set-up: FRET-quenched peptide (Pro3) cleavage by PLpro, 10 min pre-incubation, slope over 20 min, normalised to no-compound control; conditions: high concentration screen, read-out: % of control remaining
[2] = molecular target: T1, SARS-CoV-2 PLpro (nsp3 1564–1878); assay: biochemical; set-up: FRET-quenched peptide (Pro3) cleavage by PLpro, 10 min pre-incubation, slope over 20 min, normalised to no-compound control; conditions: low concentration screen, read-out: % of control remaining

SMILES: O=C(c1ccccc1O)c1[nH]c(Cl)c(Cl)c1-n1c(C(=O)c2ccccc2O)cc(Cl)c1Cl [Maritoclax]
- remaining activity at 3.75 µM ([1]; Well no.=6588): 99.2%
- remaining activity at 1.25 µM ([2]; Well no.=6588): 101%

SMILES: O=C(O)C1CCCNC1 (racemic)
- remaining activity at 3.75 µM ([1]; Well no.=195): 97.6%
- remaining activity at 1.25 µM ([2]; Well no.=195): 102%

SMILES: CCCN1CCc2cc(O)cc3c2[C@H]1Cc1ccc(O)c(O)c1-3 [R(-)-2,10,11-Trihydroxy-N-propylnoraporphine hydrobromide]
- remaining activity at 3.75 µM ([1]; Well no.=636): 103%
- remaining activity at 1.25 µM ([2]; Well no.=636): 103%

SMILES: CCCCC(C#N)(Cn1cncn1)c1ccc(Cl)cc1 (stereo not shown) [Myclobutanil]
- remaining activity at 3.75 µM ([1]; Well no.=2001): 102%
- remaining activity at 1.25 µM ([2]; Well no.=2001): 105%

SMILES: O=C1CCC[C@@H]2[C@H]3CCCN4CCC[C@@H](CN12)[C@@H]34 [Matrine]
- remaining activity at 3.75 µM ([1]; Well no.=3661): 103%
- remaining activity at 3.75 µM ([1]; Well no.=8341): 94.7%
- remaining activity at 1.25 µM ([2]; Well no.=3661): 101%
- remaining activity at 1.25 µM ([2]; Well no.=8341): 100%

SMILES: COc1ccc(/C=C2\COc3ccc(C)cc3C2=O)cc1O [IMS2186]
- remaining activity at 3.75 µM ([1]; Well no.=5394): 97.5%
- remaining activity at 1.25 µM ([2]; Well no.=5394): 97.1%

SMILES: Clc1ccccc1C(c1ccccc1)(c1ccccc1)n1cccn1 [TRAM-34]
- remaining activity at 3.75 µM ([1]; Well no.=4707): 103%
- remaining activity at 1.25 µM ([2]; Well no.=4707): 107%

SMILES: c1ccc(-c2ccc(C(c3ccccc3)n3ccnc3)cc2)cc1 (stereo not shown) [Bifonazole]
- remaining activity at 3.75 µM ([1]; Well no.=2173): 101%
- remaining activity at 1.25 µM ([2]; Well no.=2173): 99.6%

SMILES: COc1cc(CCC(=O)CC(=O)CCc2ccc(O)c(OC)c2)ccc1O [Tetrahydrocurcumin]
- remaining activity at 3.75 µM ([1]; Well no.=6199): 107%
- remaining activity at 1.25 µM ([2]; Well no.=6199): 104%

SMILES: COc1ccc(C2CNC(=O)C2)cc1OC1CCCC1 (stereo not shown) [Rolipram]
- remaining activity at 3.75 µM ([1]; Well no.=1302): 103%
- remaining activity at 3.75 µM ([1]; Well no.=2152): 102%
- remaining activity at 1.25 µM ([2]; Well no.=1302): 102%
- remaining activity at 1.25 µM ([2]; Well no.=2152): 101%

SMILES: Nc1c(C(=O)O)c2nc3c(C(=O)O)cccc3oc-2cc1=O [Cinnabarinic Acid]
- remaining activity at 3.75 µM ([1]; Well no.=5384): 96.7%
- remaining activity at 1.25 µM ([2]; Well no.=5384): 91.8%

SMILES: Cc1nc(C)c(C)nc1C [Tetramethylpyrazine]
- remaining activity at 3.75 µM ([1]; Well no.=4143): 97.4%
- remaining activity at 1.25 µM ([2]; Well no.=4143): 98.6%

SMILES: N[C@@H](CS(=O)O)C(=O)O [L-Cysteinesulfinic Acid]
- remaining activity at 3.75 µM ([1]; Well no.=128): 96.5%
- remaining activity at 1.25 µM ([2]; Well no.=128): 93.4%

SMILES: Cc1cccc(C2CN(C)CCc3c2cc(O)c(O)c3Cl)c1 (stereo not shown) [SKF 83959 hydrobromide]
- remaining activity at 3.75 µM ([1]; Well no.=1264): 108%
- remaining activity at 1.25 µM ([2]; Well no.=1264): 106%

SMILES: O=C(O)c1ccc(O)cc1O [2,4-Dihydroxybenzoic acid]
- remaining activity at 3.75 µM ([1]; Well no.=6781): 101%
- remaining activity at 1.25 µM ([2]; Well no.=6781): 102%

SMILES: COc1cc(O)c(CC=C(C)C)c(O)c1C(=O)/C=C/c1ccc(O)cc1 [Xanthohumol]
- remaining activity at 3.75 µM ([1]; Well no.=8578): 102%
- remaining activity at 1.25 µM ([2]; Well no.=8578): 106%

SMILES: Cc1cn([C@@H]2C[C@@H](O)[C@H](CO)O2)c(=O)[nH]c1=O [Telbivudine]
- remaining activity at 3.75 µM ([1]; Well no.=8380): 92.3%
- remaining activity at 3.75 µM ([1]; Well no.=8839): 96.3%
- remaining activity at 1.25 µM ([2]; Well no.=8380): 92.4%
- remaining activity at 1.25 µM ([2]; Well no.=8839): 98.6%

SMILES: CCCc1c(-c2ccc(O)cc2)nn(-c2ccc(O)cc2)c1-c1ccc(O)cc1 [1,3,5-tris(4-hydroxyphenyl)-4-propyl-1H-pyrazole]
- remaining activity at 3.75 µM ([1]; Well no.=468): 109%
- remaining activity at 1.25 µM ([2]; Well no.=468): 105%

SMILES: NC(=O)C(c1ccccc1)(c1ccccc1)[C@@H]1CCN(CCc2ccc3c(c2)CCO3)C1 [Darifenacin (hydrobromide)]
- remaining activity at 3.75 µM ([1]; Well no.=7341): 89.4%
- remaining activity at 1.25 µM ([2]; Well no.=7341): 95.3%

SMILES: NC(N)=N[C@@H](CC(=O)O)C(=O)O [Guanidinosuccinic acid]
- remaining activity at 3.75 µM ([1]; Well no.=8176): 101%
- remaining activity at 1.25 µM ([2]; Well no.=8176): 109%

SMILES: O=C(Nc1ccc(C(O)(C(F)(F)F)C(F)(F)F)cc1)c1ccc(C(F)(F)F)cc1 [SR1078]
- remaining activity at 3.75 µM ([1]; Well no.=8503): 105%
- remaining activity at 1.25 µM ([2]; Well no.=8503): 107%

SMILES: CC1(C)O[C@@H]2C[C@H]3[C@@H]4C[C@H](F)C5=CC(=O)C=C[C@]5(C)[C@@]4(F)[C@@H](O)C[C@]3(C)[C@]2(C(=O)CO)O1 [Fluocinolone acetonide]
- remaining activity at 3.75 µM ([1]; Well no.=2126): 98.4%
- remaining activity at 1.25 µM ([2]; Well no.=2126): 97.3%

SMILES: CCN(CCCl)Cc1ccccc1Br [DSP-4 hydrochloride]
- remaining activity at 3.75 µM ([1]; Well no.=284): 98%
- remaining activity at 1.25 µM ([2]; Well no.=284): 98.1%

SMILES: CC(=O)/N=c1/sc(S(N)(=O)=O)nn1C [Methazolamide]
- remaining activity at 3.75 µM ([1]; Well no.=4686): 98.7%
- remaining activity at 1.25 µM ([2]; Well no.=4686): 100%

SMILES: Cn1cc(C2=C(c3cn(CCCSC(=N)N)c4ccccc34)C(=O)NC2=O)c2ccccc21 [Ro-31-8220]
- remaining activity at 3.75 µM ([1]; Well no.=2633): 96.9%
- remaining activity at 1.25 µM ([2]; Well no.=2633): 98.6%

SMILES: CCCCCCCC/C=C/CCCCCCCC(=O)OC[C@H]1O[C@@H](n2ccc(N)nc2=O)[C@@H](O)[C@@H]1O [Elacytarabine]
- remaining activity at 3.75 µM ([1]; Well no.=7716): 110%
- remaining activity at 1.25 µM ([2]; Well no.=7716): 105%

SMILES: Cc1cc(C(=O)NOCCO)c(Nc2ccc(I)cc2F)n(C)c1=O [AZD8330]
- remaining activity at 3.75 µM ([1]; Well no.=5104): 106%
- remaining activity at 1.25 µM ([2]; Well no.=5104): 107%

SMILES: CP(=O)(O)CCCN [SKF 97541 hydrochloride]
- remaining activity at 3.75 µM ([1]; Well no.=66): 98.7%
- remaining activity at 1.25 µM ([2]; Well no.=66): 97.4%

SMILES: C[C@H](CCC(=O)O)[C@H]1CC[C@H]2[C@@H]3C(=O)C[C@@H]4CC(=O)CC[C@]4(C)[C@H]3CC(=O)[C@]12C [Dehydrocholic acid]
- remaining activity at 3.75 µM ([1]; Well no.=8300): 99%
- remaining activity at 1.25 µM ([2]; Well no.=8300): 100%

SMILES: CCC(C(=O)O)C(=O)O [Ethylmalonic acid]
- remaining activity at 3.75 µM ([1]; Well no.=6875): 93.4%
- remaining activity at 1.25 µM ([2]; Well no.=6875): 94.5%

SMILES: CCCCCCCCCCCCCCC(=O)O [Pentadecanoic acid]
- remaining activity at 3.75 µM ([1]; Well no.=4588): 95.6%
- remaining activity at 3.75 µM ([1]; Well no.=7021): 103%
- remaining activity at 1.25 µM ([2]; Well no.=4588): 95%
- remaining activity at 1.25 µM ([2]; Well no.=7021): 110%

SMILES: C[N+](C)(C)[C@@H](Cc1c[nH]c(=S)[nH]1)C(=O)[O-] [Ergothioneine]
- remaining activity at 3.75 µM ([1]; Well no.=1612): 98.8%
- remaining activity at 1.25 µM ([2]; Well no.=1612): 100%

SMILES: COc1ccc(CC[C@H]2CCC[C@@H](CCc3ccc(OC)cc3)N2C[C@@H](O)CO)cc1 [(R)-3-((2R,6S)-2,6-bis(4-methoxyphenethyl)piperidin-1-yl)propane-1,2-diol hydrochloride]
- remaining activity at 3.75 µM ([1]; Well no.=5614): 102%
- remaining activity at 1.25 µM ([2]; Well no.=5614): 101%

SMILES: CC1(C)CCC=[N+]1[O-] [5,5-Dimethyl-1-pyrroline-N-oxide]
- remaining activity at 3.75 µM ([1]; Well no.=501): 97.1%
- remaining activity at 1.25 µM ([2]; Well no.=501): 97%
